{"source": "patent US8623908B2", "about": "“Use of tellurium compounds for inhibition of interleukin-converting enzyme” (Biomas Ltd., priority 2004, dated 2014)", "key": {"[1]": {"tested_on": "metallo proteases", "details": "Inorg. Chem. 37: 1704-1712, 1998; cited from earlier work"}, "[2]": {"tested_on": "IL-18 secretion by human PBMC", "assay": "Role of nitric oxide: IL-18 inhibition in PBMC with L-NAME", "format": "cell-based", "details": "L-NAME 20 nM 2 hours before AS101 0.5 μg/ml; SAC; 24 hours; FIG. 5", "description": "(§1) The R&D Systems (Minneapolis, Minn.) IL-18 and IL-1β ELISA kits were used for the quantitative measurement of these cytokines either in supernatants or in mice sera.\nL-NAME/D-NAME (20 nM) were delivered to PBMC (2.5×10^6 cells/ml)2 hours before AS101 (0.5 μg/ml). SAC (10^−3 v/v) was added 1 hour following AS101. Supernatants were collected after 24 hours and evaluated for IL-18 levels."}, "[3]": {"tested_on": "IL-1β", "assay": "IL-1β levels in LPS-induced septic mice", "format": "in vivo, c57BL/6J mice", "details": "24 hours after LPS, FIG. 7b", "description": "(§2) For serum cytokine evaluation, PBS or AS101 was injected intraperitoneally (i.p.) 2 hours following LPS treatment. For survival experiments AS101 was injected i.p. daily at various concentrations starting 1 hour and up to 24 hours following LPS until the end of the experiment.\nas §1\nPBS (control) and AS101 at various concentrations were injected into c57BL/6J mice 2 hours following induction of sepsis by LPS (0.5 mg/mouse) treatment. 24 hours after LPS injection, mice were sacrificed and evaluated for plasma concentration of these cytokines in order to determine whether AS101 can inhibit production of IL-18 and IL-1β in vivo."}, "[4]": {"molecular_target": "T1, caspase-1 (ICE-Interleukin-β-converting enzyme), rCaspase-1 (Homo sapiens, UniProt P29466)", "T1 construct": "purchased Biomol International Industries L.P. Canada", "T1 sequence (P29466 120-297 limits assumed)": "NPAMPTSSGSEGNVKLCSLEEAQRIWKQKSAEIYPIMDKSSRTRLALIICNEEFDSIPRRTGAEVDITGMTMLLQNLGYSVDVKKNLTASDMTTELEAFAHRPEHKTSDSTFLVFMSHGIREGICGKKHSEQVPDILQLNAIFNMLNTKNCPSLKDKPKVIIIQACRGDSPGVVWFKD", "T1 sequence (P29466 317-404 limits assumed)": "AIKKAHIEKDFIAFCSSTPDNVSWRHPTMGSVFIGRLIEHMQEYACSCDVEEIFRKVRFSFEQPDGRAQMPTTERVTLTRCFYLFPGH", "assay": "Caspase-1 activity enzymatic assay with colorimetric substrate Ac-YVAD-pNA", "format": "biochemical", "details": "AS101 2.5, 5, 10 μM; 1 hour, 30° C., 405 nm; FIG. 1", "description": "DTT, which is present in the commercial enzyme solution, interacts with AS101 and thus would interfere with the inhibition studies. Therefore removal of DTT from the enzyme solution prior to the enzymatic assay was necessary. Gel permeation chromatography was carried out at 4° C. 50 μl solution of commercial activated rCaspase-1 was loaded on a 1×15 cm Sephadex G-15 column (Pharmacia), preequilibrated with assay buffer containing: 50 mM Hepes, 100 mM NaCl, 0.1% CHAPS, 1 mM EDTA, 10% Glycerol at pH 7.4. The enzyme was eluted with the same buffer (degassed) at 0.5 ml/minute and 500 μl fractions were collected. The enzyme-substrate reaction was measured continuously with 1 min. intervals for a total time of 1 hour at 30° C. and was read at 405 nm. The total volume of the reaction was 100 μl and contained as following: 50 μl rCaspase-1 (0.8 U/μl), 25 μl colorimetric substrate (Ac-YVAD-pNA, 200 μM), 25 μl of AS101 at various concentrations (2.5 μM, 5 μM, 10 μM) in assay buffer.\nAS101 was tested for its possible inhibitory activity towards a member of the cysteine protease family, caspase-1 (ICE-Interleukin-β-converting enzyme). The enzymatic reaction was carried out with caspase-1 specific colorimetric substrate, Ac-YVAD-pNA, and in the absence or the presence of AS101 at different concentrations. The enzyme activity was tested for 1 hour and measured at 405 nm. […]"}, "[5]": {"tested_on": "active form of IL-18 in human HaCat keratinocytes", "assay": "Western blot of intracellular active form of IL-18 in HaCat keratinocytes", "format": "cell-based", "details": "AS101 1 μg/ml preincubated 2 hours, FIG. 3", "description": "Human HaCat keratinocytes were adjusted to 1×10^6 cells/ml and cultured at 37° C. and 7% CO2 in enriched Dulbecco's modified Eagle's medium (DMEM)(Biological industries, Kibbutz Beit Haemek, Israel), supplemented with 10% FCS (Biological industries).\nTotal cell extracts were prepared by suspension in ice-cold lysis buffer containing 50 mM Tris (pH 8.0), 150 mM NaCl, 1% NP-40, 0.1% SDS, 5 mM EDTA, 0.2 mM PMSF, 50 mM NaF, […] sodium vanadate, […]. Cell lysates were boiled for 5 min and electrophoresed on 15% SDS-PAGE and were then blotted with monoclonal IL-18 antibodies (R&D Systems, Minneapolis, Minn.). Blots were developed using horseradish peroxidase-conjugated secondary antibodies and the ECL detection system (Amersham Pharmacia Biotech).\nIL-18 is […] produced by keratinocytes after treatment with LPS or PMA. In order to determine whether the inhibitory effect of AS101 on the formation of the active form of IL-18 is consistent and will repeat itself in another type of cell culture, Western Blot analysis of total cellular proteins from human HaCat keratinocytes was performed using anti-IL-18 antibodies. […]\nCultured keratinocytes (1×10^6 cells/ml) were preincubated for 2 hours with AS101 (1 μg/ml) and then treated with PMA or LPS. Expression of IL-18 was assessed by WB analysis while α-tubulin was used as internal control. […]"}, "[6]": {"tested_on": "LPS-induced septic mice", "assay": "Survival of LPS-induced septic mice", "format": "in vivo", "description": "as §2\nData are presented as mean±SE. For comparisons of means of the various groups, the pairwise t test was used. Survival curves were statistically analyzed by comparing the cumulative percentage of survival using the Gehan-Wilcoxon test.\nIn order to study the relationship between the above in vitro and in vivo results and the effect of AS101 on survival of mice following induction of sepsis, AS101 at a concentration of 10 μg/mouse was injected into LPS-induced septic mice at various time points after LPS (0.35 mg/mouse) treatment. Survival was monitored for 9 days."}, "[7]": {"details": "rats, cited from earlier work"}}, "note": "Like-named read-outs stand apart in the source and are kept apart here.", "data": [{"smiles": "Cl[TeH]1(Cl)(Cl)OCCO1", "note": "[AS101, ammonium trichloro(dioxyethylene-O,O′)tellurate]", "values": [{"measurement": "inhibition of metallo proteases", "setting": "[1]", "result": "no inhibition"}, {"measurement": "inhibitory effect on IL-18 secretion in the presence of NOS inhibitor L-NAME", "setting": "[2]", "result": "not diminished"}, {"measurement": "IL-1β level in septic mice", "setting": "[3]; AS101 5 μg/mouse i.p. 2 hours after LPS 0.5 mg/mouse", "result": "significantly inhibited"}, {"measurement": "IL-1β level in septic mice", "setting": "[3]; AS101 10 μg/mouse i.p. 2 hours after LPS 0.5 mg/mouse", "result": "significantly inhibited"}, {"measurement": "effect on ICE activity (percent residual enzymatic activity)", "setting": "[4]", "result": "inhibits ICE activity directly, in a concentration-dependant manner"}, {"measurement": "amounts of the active form of IL-18", "setting": "[5]; then LPS 50 ng/ml", "result": "produced a decrease in the amounts of the active form of IL-18"}, {"measurement": "amounts of the active form of IL-18", "setting": "[5]; then PMA 10 ng/ml", "result": "produced a decrease in the amounts of the active form of IL-18"}, {"measurement": "effect on survival of septic mice", "setting": "[6]; AS101 10 μg/mouse i.p. daily, injected after LPS 0.35 mg/mouse, survival monitored 9 days, FIG. 8", "result": "beneficial effect"}, {"measurement": "optimal dose for survival", "setting": "[6]; injected 6 hours following LPS and thereafter every day", "result": 10, "unit": "μg/mouse"}, {"measurement": "LD50 relative to the immunologically effective dose", "setting": "[7]; intramuscular administration", "result": "500-1000 folds"}, {"measurement": "LD50 relative to the immunologically effective dose", "setting": "[7]; intravenous administration", "result": "500-1000 folds"}]}]}
